Test results as given in patent US20110046018A1, “SERS-BASED, SINGLE STEP, REAL-TIME DETECTION OF PROTEIN KINASE AND/OR PHOSPHATASE ACTIVITY” (priority 2007, published 2011).
Entries after “also recorded” stand apart in the source; their conditions may differ.

Columns and labels:
[1] = biological target: Src kinase (Homo sapiens, UniProt P12931); test: SERS peptide-conjugated nanoprobe assay of Src kinase inhibition; format: biochemical; conditions: with increasing concentration of inhibitor
Description: Src kinase SERS probes were tested and calibrated using purified p60 cellular Src kinase first. The real time peptide SERS spectra were recorded in the reaction with 10 nM Src kinase at 37° C. […] The phosphorylation level was defined as the normalized ratio of peak intensities between 1004 cm^−1 and 1260 cm^−1. […] The real time phosphorylation level in the reactions was characterized with various concentrations of Src kinase. […] The reaction constants of the Src kinase at different concentration can be calculated using the Michaelis-Maten model.
Different Src kinase inhibitors were tested using the peptide-conjugated nanoprobe assay. The phosphorylation level of the Src kinase with the addition of the inhibitors PP2, PP3 and SU5656 was tested. […] The IC50 concentrations for the three inhibitors were characterized respectively.
A microscopy system with Raman spectrometer was used to acquire Raman scattering spectra from single nanocrescents. […] A 785 nm semiconductor laser was used in our experiments as the excitation source of Raman scattering, and the laser beam was focused by a 40× objective lens on the nanocrescent. The excitation power was measured by a photometer (Newport, Calif.) to be ˜0.8 mW. The Raman scattering light was then collected through the same optical pathway through a long-pass filter and analyzed by the spectrometer.

[2] = tested on: substrate peptide for Src kinase (SEQ ID NO:1)
[3] = biological target: substrate peptide for Src kinase (SEQ ID NO:1); test: cell-based or functional assay

Sequence of Src kinase (P12931 whole entry): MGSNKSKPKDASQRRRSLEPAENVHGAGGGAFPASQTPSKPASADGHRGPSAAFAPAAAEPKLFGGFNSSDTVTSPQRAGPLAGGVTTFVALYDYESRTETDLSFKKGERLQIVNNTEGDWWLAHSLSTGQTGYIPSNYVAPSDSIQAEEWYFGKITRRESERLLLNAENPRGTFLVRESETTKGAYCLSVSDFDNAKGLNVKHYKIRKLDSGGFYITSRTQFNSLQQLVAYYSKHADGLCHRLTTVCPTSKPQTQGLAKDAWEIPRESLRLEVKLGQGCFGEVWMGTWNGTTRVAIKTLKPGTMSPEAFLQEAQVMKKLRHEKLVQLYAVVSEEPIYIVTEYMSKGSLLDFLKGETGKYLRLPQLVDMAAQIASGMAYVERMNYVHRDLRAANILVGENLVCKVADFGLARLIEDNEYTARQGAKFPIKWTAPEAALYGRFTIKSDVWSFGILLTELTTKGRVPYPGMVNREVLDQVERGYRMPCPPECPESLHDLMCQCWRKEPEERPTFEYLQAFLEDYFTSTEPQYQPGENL

Compound | phosphorylation level of the Src kinase with the addition of the inhibitors [1] | other results
CC(C)(C)n1nc(-c2ccc(Cl)cc2)c2c(N)ncnc21 [PP2] | decreases significantly | –
Nc1ncnc2c1cnn2-c1ccccc1 [PP3] | decreases significantly | –
CN(C)S(=O)(=O)c1ccc2c(c1)/C(=C/c1cc3c([nH]1)CCCC3)C(=O)N2 [SU5656] | decreases significantly | –
purified p60 cellular Src kinase | – | minimal detectable concentration of Src kinase (SERS phosphorylation assay) [2]: the minimal detectable concentration is above 10 pM; phosphorylation level (normalized ratio of peak intensities between 1004 cm^-1 and 1260 cm^-1, SERS) [2]: increased more than 6-fold after the reactions with 10 nM Src kinase; also recorded: The phosphorylation level saturated at around 7 for high concentration of Src kinase
virus Src protein (in crude lysate of transfected 3T9 mouse fibroblast cells) (enzyme) | – | phosphorylation level (SERS, crude cell lysate) [3]: 3 times
